What all share (type): biochemical
One assay deals with T1, human factor Xa (Homo sapiens, UniProt P00742).
T1 construct: purchased Boehringer Mannheim
The experiment in a line: Assay for inhibitory activity against factor Xa (synthetic substrate PS-2000). The conditions noted are these: for pIC50: PS-2000, pH 8.5, 37° C. From the text:
(§1) As synthetic substrate used to examine the activity of the inhibitor for inhibiting substrate decomposition with the enzyme, there were used PS-994 (H-D-Lys(Tos)-Phe-Lys-CHA.2HCl, manufactured by Nitto Boseki Co., Ltd.) for plasmin, PS-915 (H-D-Phe-Pro-Arg-CHA.2HCl, manufactured by Nitto Boseki Co., Ltd.) for thrombin and trypsin, PS-2000 (Z-D-Lys(HCO)-Gly-Arg-CHA.HCl, manufactured by Nitto Boseki Co., Ltd.) for factor Xa, S-2302 (H-D-Pro-Phe-Arg-pNA, manufactured by Kabi Co.) for kallikrein, and MUK-34: [drawing 5] for urokinase.
(§2) As plasmin, thrombin, trypsin, factor Xa, kallikrein and urokinase, there were used 0.3 CU/ml of Sankyo Color Test α2 -PI Assay Kit Standard, 1.2 NIH U/ml of Sankyo Color Test ATIII Assay Kit, 2 μg/ml of Code 3703 manufactured by Worsingstone Co., 0.25 U/ml of human factor Xa manufactured by Boehringer Mannheim, 0.12 U/ml of human plasma kallikrein manufactured by Kabi Co., and 1000 U/ml of Mochida Pharmaceutical Urokinase 60,000 (60,000 U/vial), respectively. In the case of CHA type substrate, a color-forming termination solution for Sankyo Color Test Kit was used. Enzyme reactions were carried out at 37° C.
Assay For Inhibitory Activity Against Factor Xa
To 0.3 ml of buffer (150 mM sodium chloride aqueous solution containing 50 mM Tris, pH 8.5) was added 0.1 ml each of an aqueous solution of the inhibitor having various concentrations. The mixture was heated for 5 minutes. Then, 0.1 ml of factor Xa solution (150 mM solution chloride aqueous solution containing 50 mM Tris and 20 mM calcium chloride, pH 8.5) was added thereto, and the mixture was reacted for 5 minutes. Furthermore,5% polyvinylpyrrolidone solution (0.1 ml) containing 10 mM PS-2000 was added thereto, and the mixture was again reacted for 5 minutes. Then, 2 ml of the color-forming termination solution was added to the reaction mixture. Then the mixture was allowed to stand for 10 minutes and absorbance was measured at 700 nm. IC50 was determined by the method described above.

The target of another assay is T2, urokinase (Homo sapiens, UniProt P00749).
T2 construct: purchased Mochida Pharmaceutical Urokinase 60,000 (60,000 U/vial)
The experiment in a line: Assay for inhibitory activity against urokinase (synthetic substrate MUK-34). The conditions noted are these: for pIC50: MUK-34, pH 8.20, 37° C.
Description: as §1, §2
Assay For Inhibitory Activity Against Urokinase
An aqueous solution (0.1 ml) of […] the inhibitor was added to 0.3 ml of buffer (150 mM sodium chloride aqueous solution containing 50 mM Tris, pH 8.20) and the mixture was heated for 5 minutes. Thereafter 0.1 ml of urokinase solution (containing 50 mM Tris, 150 mM sodium chloride aqueous solution and 0.1% BSA, pH 8.20) was added thereto, and the mixture was reacted for 5 minutes. Furthermore, 10 mM MUK-34 aqueous solution (0.1 ml) was added thereto, and the mixture was reacted for 5 minutes. Then 10% acetic acid aqueous solution (2.0 ml) was added to the mixture to terminate the reaction. Absorbance was measured at 405 nm and IC50 was determined by the method described above.

The next assay concerns the target T3, plasmin (Homo sapiens, UniProt P00747).
T3 construct: purchased Sankyo (Sankyo Color Test α2 -PI Assay Kit Standard)
The experiment in a line: Assay for inhibitory activity against plasmin (synthetic substrate PS-994). The conditions noted are these: for pIC50: PS-994, pH 7.8, 37° C.
Description: as §1, §2
Assay For Inhibitory Activity Against Plasmin
Each aqueous solution (0.1 ml) of the inhibitor having various concentrations was added to 0.4 ml of buffer (150 mM sodium chloride aqueous solution containing 100 mM Tris, pH 7.8) and the mixture was heated for 5 minutes. After 0.2 ml of the plasmin solution was added thereto, the mixture was reacted for 5 minutes. After 0.1 ml of PS-994 solution (10 mM) was added thereto, and the mixture was again reacted for 5 minutes. Then, 2.0 ml of the color-forming termination solution was added to the reaction mixture. Then the mixture was allowed to stand for 10 minutes and absorbance was measured at 700 nm. A concentration of the inhibitor in the reaction system showing 1/2 absorbance that of the case where no inhibitor was present was determined to be IC50.

The target in another assay is T4, trypsin (Bos taurus, UniProt P00760).
T4 construct: purchased Worsingstone Co. (so in the source)
T4 sequence (P00760 24-246): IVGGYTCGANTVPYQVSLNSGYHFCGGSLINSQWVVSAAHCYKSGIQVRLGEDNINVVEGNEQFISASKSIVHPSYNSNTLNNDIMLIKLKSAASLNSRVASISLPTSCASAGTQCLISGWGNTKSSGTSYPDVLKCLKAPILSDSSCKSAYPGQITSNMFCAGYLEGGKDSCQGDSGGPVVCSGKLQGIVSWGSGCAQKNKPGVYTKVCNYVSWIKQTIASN
The experiment in a line: Assay for inhibitory activity against trypsin (synthetic substrate PS-915). Particulars: for pIC50: PS-915, pH 8.0, 37° C.
Description: as §1, §2
Assay For Inhibitory Activity Against Trypsin
After 0.1 ml of an aqueous solution of the inhibitor was added to 0.5 ml of buffer (150 mM sodium chloride aqueous solution containing 150 mM Tris, pH 8.0) and the mixture was heated for 5 minutes, 0.1 ml of trypsin solution was added thereto. The mixture was reacted for 5 minutes. Furthermore, 0.1 ml of PS-915 solution (10 mM) was added thereto. The mixture was again reacted for 5 minutes. Then, 2 ml of the color-forming termination solution [containing 2.5 mg/ml of soybean trypsin inhibitor (manufactured by Sigma Co., No. T-9003)] was added to the reaction mixture. Then the mixture was allowed to stand for 10 minutes and absorbance was measured at 700 nm. IC50 was determined by the method described above.

In the next assay the target is T5, human plasma kallikrein (Homo sapiens, UniProt P03952).
T5 construct: purchased Kabi Co
The experiment in a line: Assay for inhibitory activity against kallikrein (synthetic substrate S-2302). Particulars: for pIC50: S-2302, pH 8.0, 37° C.
Description: as §1, §2
Assay For Inhibitory Activity Against Kallikrein
To 0.4 ml of buffer (150 mN sodium chloride aqueous solution containing 50 mM Tris, pH 8.0) was added 0.1 ml each of aqueous solutions of the inhibitor having various concentrations and the mixture was heated for 5 minutes. Then, 0.1 ml of kallikrein solution (containing 0.5% bovine serum albumin, No. A-8022 of Sigma Co.) was added thereto, and the mixture was reacted for 5 minutes. Furthermore, 10 mM S-2302 aqueous solution (0.1 ml) was added thereto, and the mixture was again reacted for 5 minutes. Then, 5 ml of 20% acetic acid aqueous solution was added to terminate the reaction. Absorbance was measured at 405 nm and IC50 was determined by the method described above.

The next assay concerns the target T6, thrombin (Homo sapiens, UniProt P00734).
T6 construct: purchased Sankyo (Sankyo Color Test ATIII Assay Kit)
The assay is described as follows: Assay for inhibitory activity against thrombin (synthetic substrate PS-915). Particulars: for pIC50: PS-915, pH 8.5, 37° C.
Description: as §1, §2
Assay For Inhibitory Activity Against Thrombin
Each aqueous solution (0.1 ml) of the inhibitor having various concentrations was added to 0.4 ml of buffer (150 mM sodium chloride aqueous solution containing 150 mM Tris, pH 8.5) and the mixture was heated for 5 minutes. Then, 0.2 ml of the thrombin solution was added thereto and the mixture was reacted for 5 minutes. After 0.1 ml of PS-915 solution (10 mM) was added thereto, the mixture was again reacted for 5 minutes. Then, 2 ml of the color-forming termination solution was added to the reaction mixture. Then the mixture was allowed to stand for 10 minutes and absorbance was measured at 700 nm. IC50 was determined by the method described above.

[1] abbreviates: Table 3, compounds of the invention, read-out: Factor.
[2] abbreviates: Table 3, compounds of the invention, read-out: Urokinase.
The mark [3] stands for this setting: Table 3, compounds of the invention, read-out: Plasmin.
The mark [4] stands for this setting: Table 3, compounds of the invention, read-out: Trypsin.
[5] abbreviates: Table 3, compounds of the invention, read-out: Kallikrein.
[6] abbreviates: Table 3, compounds of the invention, read-out: Thrombin.
The mark [7] stands for this setting: Table 2, known compounds, read-out: IC50 Factor Xa.
Where [8] appears, read: Table 2, known compounds, read-out: IC50 Urokinase.
Setting [9] is: Table 2, known compounds, read-out: IC50 Plasmin.
Setting [10] is: Table 2, known compounds, read-out: IC50 Trypsin.
Setting [11] is: Table 2, known compounds, read-out: IC50 Kallikrein.
The mark [12] stands for this setting: Table 2, known compounds, read-out: IC50 Thrombin.

pIC50: −log10 of the molar value. Structures can show the parent of a compound that is named as a salt. Where two headings read alike, the source gives them in different places. Where a SMILES comes first, the peptide text is derived from it. [ ]: non-standard residue; d: D form. The star is where a group is joined. Tos = Cc1ccc(S(=O)(=O)*)cc1; PhAc = O=C(Cc1ccccc1)*

T1 sequence (P00742 235-488 limits assumed): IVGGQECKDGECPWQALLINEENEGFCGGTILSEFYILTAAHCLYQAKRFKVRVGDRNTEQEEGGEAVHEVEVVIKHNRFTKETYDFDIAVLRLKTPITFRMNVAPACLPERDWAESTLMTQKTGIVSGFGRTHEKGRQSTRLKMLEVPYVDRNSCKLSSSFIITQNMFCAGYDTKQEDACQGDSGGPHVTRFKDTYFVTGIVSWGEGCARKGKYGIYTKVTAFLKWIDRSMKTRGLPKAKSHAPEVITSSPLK
T1 sequence (P00742 41-179 partner limits assumed): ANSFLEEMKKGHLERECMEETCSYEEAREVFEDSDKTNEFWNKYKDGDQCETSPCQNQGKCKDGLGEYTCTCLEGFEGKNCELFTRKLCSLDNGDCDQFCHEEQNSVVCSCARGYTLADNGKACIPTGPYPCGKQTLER
T3 sequence (P00747 581-810 limits assumed, species assumed): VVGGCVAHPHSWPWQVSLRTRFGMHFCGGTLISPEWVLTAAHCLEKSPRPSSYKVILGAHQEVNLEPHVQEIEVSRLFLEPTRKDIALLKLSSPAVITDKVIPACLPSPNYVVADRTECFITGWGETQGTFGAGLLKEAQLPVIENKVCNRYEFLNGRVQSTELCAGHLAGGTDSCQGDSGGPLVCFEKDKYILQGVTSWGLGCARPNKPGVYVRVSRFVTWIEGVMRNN
T3 sequence (P00747 97-580 partner limits assumed, species assumed): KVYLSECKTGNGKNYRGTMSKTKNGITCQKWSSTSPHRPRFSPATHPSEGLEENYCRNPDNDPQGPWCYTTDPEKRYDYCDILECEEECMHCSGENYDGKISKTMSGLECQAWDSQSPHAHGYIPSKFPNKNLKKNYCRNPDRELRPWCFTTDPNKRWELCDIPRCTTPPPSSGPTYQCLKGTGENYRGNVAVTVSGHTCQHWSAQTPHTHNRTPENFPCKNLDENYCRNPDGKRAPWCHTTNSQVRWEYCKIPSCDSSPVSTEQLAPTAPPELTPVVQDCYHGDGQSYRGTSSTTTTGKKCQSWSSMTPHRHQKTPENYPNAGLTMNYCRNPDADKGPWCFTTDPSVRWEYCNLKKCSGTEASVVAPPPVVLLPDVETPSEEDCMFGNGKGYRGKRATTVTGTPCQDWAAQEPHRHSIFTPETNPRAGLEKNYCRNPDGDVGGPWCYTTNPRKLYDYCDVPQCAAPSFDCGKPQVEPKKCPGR
T5 sequence (P03952 20-638): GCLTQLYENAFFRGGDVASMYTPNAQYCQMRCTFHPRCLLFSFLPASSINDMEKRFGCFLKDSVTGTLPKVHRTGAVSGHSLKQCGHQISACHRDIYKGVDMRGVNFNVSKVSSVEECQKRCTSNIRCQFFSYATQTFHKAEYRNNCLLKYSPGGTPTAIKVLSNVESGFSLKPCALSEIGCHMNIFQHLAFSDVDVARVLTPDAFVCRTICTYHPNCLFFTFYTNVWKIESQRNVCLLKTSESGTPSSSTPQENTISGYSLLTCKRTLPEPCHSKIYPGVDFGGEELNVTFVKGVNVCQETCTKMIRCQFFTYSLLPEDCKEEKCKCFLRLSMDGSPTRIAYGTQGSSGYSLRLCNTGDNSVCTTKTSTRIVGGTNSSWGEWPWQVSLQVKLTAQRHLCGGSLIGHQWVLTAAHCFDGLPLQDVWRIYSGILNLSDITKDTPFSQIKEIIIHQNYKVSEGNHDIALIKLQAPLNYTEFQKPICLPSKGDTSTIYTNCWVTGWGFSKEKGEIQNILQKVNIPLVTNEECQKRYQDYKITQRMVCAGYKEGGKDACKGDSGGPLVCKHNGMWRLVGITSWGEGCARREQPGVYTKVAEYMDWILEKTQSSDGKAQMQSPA

With `Cc1ccc(S(=O)(=O)NCCCC[C@@H](N)C(=O)N2CCC[C@H]2C(=O)N[C@H](C=O)CCCNC(=N)N)cc1` [Example 1, N-ε-(p-tosyl)-D-lysyl-L-prolyl-L-argininal sulfate] (H-[dK](Tos)-Pro-Arg-aldehyde), the pIC50 on human factor Xa (setting [1]) was 5.19; on urokinase (setting [2]), 4.46; at plasmin (setting [3]), 5.82; on trypsin (setting [4]), 7.32; on human plasma kallikrein (setting [5]) it was 7.54; on thrombin (setting [6]) it was 6.52.

Regarding `N=C(N)NCCC[C@@H](C=O)NC(=O)[C@@H]1CCCN1C(=O)[C@H](N)CCCCNC(=O)Cc1ccccc1` [Example 9, N-ε-phenylacetyl-D-lysyl-L-prolyl-L-argininal sulfate] (H-[dK](PhAc)-Pro-Arg-aldehyde), the pIC50 on human factor Xa (setting [1]) was 4.82; on urokinase (setting [2]), 4.08; at plasmin (setting [3]) it was 5.59; at trypsin (setting [4]), 7.17; on human plasma kallikrein (setting [5]), 6.70; at thrombin (setting [6]), 6.03.

For the molecule `CC(=O)N[C@@H](CC(C)C)C(=O)N[C@@H](CC(C)C)C(=O)N[C@H](C=O)CCCNC(=N)N` [Example A1, acetyl-L-leucyl-L-leucyl-argininal, reference compound], the “inhibitory activity against factor Xa (in words)” value against human factor Xa is given as “do not strongly inhibit”. In addition, the “inhibitory activity against urokinase (in words)” value against urokinase is “do not strongly inhibit”. Also, on plasmin, the “inhibitory activity against plasmin (in words)” value is listed as “do not strongly inhibit”. Moreover, the “inhibitory activity against trypsin (in words)” value on trypsin was “inhibit”. In addition, the “inhibitory activity against kallikrein (in words)” value against human plasma kallikrein was “do not strongly inhibit”.

Turning to `N=C(N)NCCC[C@@H](C=O)NC(=O)[C@@H]1CCCN1C(=O)[C@H](N)Cc1ccccc1` [Example A2, D-phenylalanyl-L-prolyl-L-argininal, reference compound], the “inhibitory activity against factor Xa (in words)” value at human factor Xa is “do not strongly inhibit”. Also, the pIC50 on human factor Xa (setting [7]) was 4.60; at urokinase (setting [8]), 4.38; on plasmin (setting [9]), 4.72; at trypsin (setting [10]), 7.16; on human plasma kallikrein (setting [11]) it was 4.51; on thrombin (setting [12]), 7.60. The “inhibitory activity against urokinase (in words)” value against urokinase is given as “do not strongly inhibit”. In addition, the “inhibitory activity against plasmin (in words)” value at plasmin is “do not strongly inhibit”. Moreover, the “inhibitory activity against trypsin (in words)” value against trypsin is “inhibit”. In addition, the “inhibitory activity against kallikrein (in words)” value on human plasma kallikrein is “do not strongly inhibit”. Besides, the “inhibitory activity against thrombin (in words)” value against thrombin is recorded as “inhibit”.

Take `CCOC(=O)c1ccc(OC(=O)CCCCCN=C(N)N)cc1` [Example A3, reference compound]: the pIC50 at human factor Xa (setting [7]) is 4.89; on urokinase (setting [8]), 5.96; at plasmin (setting [9]) it was 4.40; on trypsin (setting [10]) it was 5.72; on human plasma kallikrein (setting [11]) it was 5.35; on thrombin (setting [12]), 4.49.

With “N-α-(2-naphthalenesulfonyl)-N-ε-(p-tosyl)-D-lysyl-L-prolyl-L-argininal 1/2 sulfate [Example 20]”, the pIC50 at human factor Xa (setting [1]) is 5.96; at urokinase (setting [2]), 5.18; at plasmin (setting [3]), 6.60; at trypsin (setting [4]), 7.37; on human plasma kallikrein (setting [5]) it was 6.77; at thrombin (setting [6]) it was 5.92.

With “N-α-N-ε-di(p-tosyl)-D-lysyl-L-prolyl-L-argininal1/2 sulfate [Example 17]”, the pIC50 was 6.34 at human factor Xa (setting [1]); 5.46 on urokinase (setting [2]); 7.22 at plasmin (setting [3]); 7.46 on trypsin (setting [4]); 7.42 on human plasma kallikrein (setting [5]); 6.20 at thrombin (setting [6]).

“N-α-isobutoxycarbonyl-N-ε-(p-tosyl)-D-lysyl-L-prolyl-L-argininal 1/2 sulfate [Example 15]”: the pIC50 at human factor Xa (setting [1]) is 6.46; at urokinase (setting [2]), 5.85; at plasmin (setting [3]) it was 7.23; on trypsin (setting [4]) it was 7.66; on human plasma kallikrein (setting [5]), 7.43; at thrombin (setting [6]) it was 6.36.

As for “N-ε-(2-naphthalenesulfonyl)-D-lysyl-L-prolyl-L-argininal sulfate [Example 3]”, the pIC50 at human factor Xa (setting [1]) was 5.46; on plasmin (setting [3]), 6.26; on trypsin (setting [4]), 7.49; on human plasma kallikrein (setting [5]), 7.40; at thrombin (setting [6]), 6.70.

Regarding “N-ε-(p-toluoyl)-D-lysyl-L-prolyl-L-argininal sulfate [Example 7]”, the pIC50 was 5.32 at human factor Xa (setting [1]); 5.10 at urokinase (setting [2]); 6.00 on plasmin (setting [3]); 7.96 on trypsin (setting [4]); 6.70 at human plasma kallikrein (setting [5]); 6.46 on thrombin (setting [6]).

The values above are taken from patent US5153176A, “Tripeptide derivatives and protease inhibitor composition comprising the same” (Nitto Boseki Co., Ltd., priority 1990, dated 1992).
